Assay [1] deals with T1, Mitogen-activated protein kinase 14 (Homo sapiens, UniProt Q16539). In words: Each binding data point was carried out in duplicate or triplicate. Data were recorded in millipolarisation (mP) units and measured at an excitation wavelength of 485 nm and an emission wavelength of 520 nm. Tris(hydroxymethyl)aminomethane (Tris) assay buffer was used in all binding experiments and consisted of 10 mM Tris, 50 nM potassium chloride, and 3.5 mM 3-((3-cholamidopropyl)dimethylammonium)-1-propanesulfonate (Chaps) at pH 8.0.
T1 sequence (Q16539 whole entry): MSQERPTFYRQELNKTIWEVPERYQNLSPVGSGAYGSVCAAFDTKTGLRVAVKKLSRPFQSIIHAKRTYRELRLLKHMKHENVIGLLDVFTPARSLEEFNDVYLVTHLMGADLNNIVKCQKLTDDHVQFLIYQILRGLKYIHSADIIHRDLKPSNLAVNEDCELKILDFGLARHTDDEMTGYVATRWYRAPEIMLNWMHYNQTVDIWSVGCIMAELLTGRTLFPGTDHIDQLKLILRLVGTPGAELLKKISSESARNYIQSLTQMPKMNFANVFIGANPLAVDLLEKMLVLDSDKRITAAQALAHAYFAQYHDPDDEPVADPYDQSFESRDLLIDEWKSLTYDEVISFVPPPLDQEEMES

Assay [2] deals with T1, Mitogen-activated protein kinase 14. In words: (§1) Fluorescence polarisation (FP) assay for active p38alpha MARK: FP signals were measured with a PHERAstar microplate reader (BMG Labtech) using black, low-binding half-area 96 well plates (Corning). Each binding data point was carried out in duplicate or triplicate. Data were recorded in millipolarisation (mP) units and measured at an excitation wavelength of 485 nm and an emission wavelength of 520 nm. Tris(hydroxymethyl)aminomethane (Tris) assay buffer was used in all binding experiments and consisted of 10 mM Tris, […], and 3.5 mM 3-((3-cholamidopropyl)dimethylammonium)-1-propanesulfonate (Chaps) at pH 8.0. The recombinant active His-tag p38α MAPK used in the ligand binding assays were prepared as described by Bukhtiyarova et al.

The target is the same in assay [3]. The assay is described as §1, with “assay:” for “assay for active p38alpha MARK:”, “8.0.” for “8.0. The recombinant active His-tag p38α MAPK used in the ligand binding assays were prepared as described by Bukhtiyarova et al.”.

The record followed here is ChEMBL document CHEMBL5729018, “MAPK inhibitors” (2022).

Structures are written as SMILES.

For `OCC#Cc1cc(-c2ccncc2)c(-c2ccc(F)cc2)s1`, the Ki in assay [1] was found to be 2.1 µM; in assay [2], 0.63 µM.

In assay [3], `OCCC#Cc1cc(-c2ccncc2)c(-c2ccc(F)cc2)s1` registered an IC50 of 0.16 µM. The figures for the Ki in assay [1] and in assay [2] were 2 µM and 0.56 µM, respectively.

As for `OCCC#Cc1nc(-c2ccc(F)cc2)c(-c2ccncc2)n1CCCc1ccccc1` [RWJ-67657], the IC50 in assay [3] is 0.03 µM.

One may read the Ki as the equilibrium dissociation constant of an inhibitor or competing ligand from its target. What is called IC50 is the concentration at which inhibition is half-maximal.
